Converted amounts (≈) assume the structure as drawn. Where a name gives a salt, the structure may show the parent alone. Read-outs that look alike come from different tables or passages of the source. Values belong to the molecule of their own block, whether it stands above or below them.
Tests used:
[1] = for maximum dissolved drug concentration: pH 6.5 PBS solution; for solubility in phosphate buffered saline: pH 6.5
Source text: It is known that some drugs may crystallize into one of several different crystal forms. Such crystal forms are often referred to as “polymorphs.” As used herein, “a high-energy crystalline form” means that the drug is in a crystal form which provides solubility improvement as described below.
By “amorphous” is meant simply that the drug is in a non-crystalline state. As used herein, the term “a major portion” of means that at least 60 wt % of the drug in the composition is in the amorphous form, rather than the crystalline form. […] Amounts of crystalline drug may be measured by Powder X-Ray Diffraction (PXRD), Scanning Electron Microscope (SEM) analysis, differential scanning calorimetry (DSC), or any other standard quantitative measurement.
An appropriate PBS solution is an aqueous solution comprising 20 mM Na2HPO4, 47 mM KH2PO4, 87 mM NaCl, and 0.2 mM KCl, adjusted to pH 6.5 with NaOH. An appropriate MFD solution is the same PBS solution wherein there is also present 7.3 mM sodium taurocholic acid and 1.4 mM of 1-palmitoyl-2-oleyl-sn-glycero-3-phosphocholine. Water is a preferred dissolution media for some fast precipitating salts. […] In such cases it may be preferred to use an unbuffered test medium such as distilled water as the dissolution medium.

[2] = type: physicochemical; details: not told
Method: An Accurel® PP 1E microporous polypropylene membrane was obtained from Membrana GmbH (Wuppertal, Germany). The membrane was washed in isopropyl alcohol and rinsed in methanol in a sonicating bath for 1 minute at ambient temperature, and then allowed to air dry at ambient temperature. The feed side of the membrane was then plasma-treated to render it hydrophilic by placing a sample of the membrane in a plasma chamber. The atmosphere of the plasma chamber was saturated with water vapor at a pressure of 550 mtorr. A plasma was then generated using radio frequency (RF) power inductively coupled into the chamber via annular electrodes at a power setting of 50 watts for 45 seconds. The contact angle of a drop of water placed on the surface of the plasma-treated membrane was less than about 40°. The contact angle of a drop of water placed on the permeate side of the same membrane was greater than about 110°.
A permeate reservoir was formed by gluing a sample of the plasma-treated membrane to a glass tube having an inside diameter of about 1 inch (2.54 cm) using an epoxy-based glue (LOCTITE® E-30CL HYSOL® from Henkel Loctite Corp, Rocky Hill, Conn.). The feed-side of the membrane was oriented so that it was on the outside of the permeate reservoir, while the permeate-side of the membrane was oriented so that it was on the inside of the reservoir. The effective membrane area of the membrane on the permeate reservoir was about 4.9 cm^2. The permeate reservoir was placed into a glass feed reservoir. The feed reservoir was equipped with a magnetic stir bar and the reservoir was placed on a stir plate and the stir rate was set to 100 rpm during the test. The apparatus was placed into a chamber maintained at 37° C. for the duration of the test. Further details of the test apparatus and protocols are presented in co-pending U.S. Patent Application Ser. No. 60/557,897, entitled “Method and Device for Evaluation of Pharmaceutical Compositions,” filed Mar. 30, 2004, incorporated herein by reference.
To form the feed solution, a 1.429 mg (0.5 mgA) sample of CC-1 was weighed into a feed reservoir. (As used herein, “mgA” is milligrams of active drug, reported as the free base, non-salt form, non-hydrate drug molecule.) To this was added 5 mL of the MFD solution previously described, consisting of PBS solution containing 7.3 mM sodium taurocholic acid and 1.4 mM of 1-palmitoyl-2-oleyl-sn-glycero-3-phosphocholine (0.5% NaTC/POPC). […] The feed solution was mixed using a vortex mixer for 1 minute. Before the membrane contacted the feed solution, 5 mL of 60 wt % decanol in decane was placed into the permeate reservoir. Time zero in the test was when the membrane was placed in contact with the feed solution. A […] aliquot of the permeate solution was collected at the times indicated. Samples were then diluted in […] IPA and analyzed using HPLC.
The maximum flux of drug across the membrane (in units of μgA/cm^2-min) was determined by performing a least-squares fit to the data in Table 4 from 0 to 60 minutes to obtain the slope (CC-1: 0.26 μgA/mL-min; Control 1A: 0.13 μgA/mL-min; Control 1B: 0.07 μgA/mL-min), multiplying the slope by the permeate volume (5 mL), and dividing by the membrane area (4.9 cm^2).

[3] = Microcentrifuge dissolution test in MFD solution; type: physicochemical; parameters: AUC: concentration or dose not given beside the values; details: for Dissolved Ziprasidone Concentration / AUC: MFD solution pH 6.5, 37° C.; for Dissolved Ziprasidone Concentration: 200 μgA/mL if all dissolved
Method: A microcentrifuge dissolution test was performed to verify that ziprasidone hydrochloride monohydrate is a solubility-improved form of ziprasidone. For this test, a sufficient amount of ziprasidone hydrochloride monohydrate was added to a microcentrifuge test tube so that the concentration of ziprasidone would have been 200 μgA/mL, if all of the ziprasidone had dissolved. The tests were run in duplicate. The tubes were placed in a 37° C. temperature-controlled chamber, and 1.8 mL MFD solution at pH 6.5 and 290 mOsm/kg was added to each respective tube. The samples were quickly mixed using a vortex mixer for about 60 seconds. The samples were centrifuged at 13,000 G at 37° C. for 1 minute prior to collecting a sample. The resulting supernatant solution was then sampled and diluted 1:5 (by volume) with methanol. Samples were analyzed by high-performance liquid chromatography (HPLC) at a UV absorbance of 315 nm using a Zorbax RxC8 Reliance column and a mobile phase consisting of 55% (50 mM potassium dihydrogen phosphate, pH 6.5)/45% acetonitrile. Drug concentration was calculated by comparing UV absorbance of samples to the absorbance of drug standards. The contents of each tube were mixed on the vortex mixer and allowed to stand undisturbed at 37° C. until the next sample was taken. Samples were collected at 4, 10, 20, 40, 90, and 1200 minutes following administration to the MFD solution.
A similar test was performed with the crystalline ziprasidone free base as a control, and a sufficient amount of material was added so that the concentration of compound would have been 200 μgA/mL, if all of the ziprasidone had dissolved.
The concentrations of ziprasidone obtained in these tests were used to determine the maximum dissolved concentration of ziprasidone (“MDC90”) and the area under the concentration-versus-time curve (“AUC90”) during the initial ninety minutes.

[4] = Solubility in water; type: physicochemical; details: expressed as the free base, hydrochloride monohydrate
Source text: An example of a drug having a crystalline highly soluble salt form is ziprasidone. Ziprasidone hydrochloride monohydrate has a solubility of about 10 μgA/mL (expressed as the free base) in water, whereas the free base form has a solubility of less than about 0.2 μgA/mL under the same conditions. Thus, crystalline ziprasidone hydrochloride is a solubility-improved form relative to the crystalline free base form of ziprasidone.

Molecule: O=C(N[C@@H](Cc1ccccc1)[C@@H](O)C(=O)N1C[C@@H](O)[C@@H](O)C1)c1cc2cc(Cl)ccc2[nH]1 [amorphous form, 5-chloro-1H-indole-2-carboxylic acid [(1S)-benzyl-3-((3R,4S)-dihydroxypyrrolidin-1-yl-)-(2R)-hydroxy-3-oxypropyl]amide]
- maximum dissolved drug concentration [1]: about 600 μg/mL

Molecule: O=C1Cc2cc(CCN3CCN(c4nsc5ccccc45)CC3)c(Cl)cc2N1 [Ziprasidone hydrochloride monohydrate, ziprasidone hydrochloride monohydrate]
- AUC90 relative to that provided by the free base ([3]; MFD solution): 14 fold
- MDC90 relative to that provided by the free base ([3]; MFD solution): 11 fold
- Dissolved Ziprasidone Concentration ([3]; time 0 min): 0 μgA/mL
- Dissolved Ziprasidone Concentration ([3]; time 4 min, hydrochloride monohydrate): 14 μgA/mL
- Dissolved Ziprasidone Concentration ([3]; time 10 min, hydrochloride monohydrate): 15 μgA/mL
- Dissolved Ziprasidone Concentration ([3]; time 20 min, hydrochloride monohydrate): 20 μgA/mL
- Dissolved Ziprasidone Concentration ([3]; time 40 min, hydrochloride monohydrate): 22 μgA/mL
- Dissolved Ziprasidone Concentration ([3]; time 90 min, hydrochloride monohydrate): 18 μgA/mL
- Dissolved Ziprasidone Concentration ([3]; time 1200 min, hydrochloride monohydrate): 9 μgA/mL
- AUC ([3]; up to time 0 min): 0 min-μgA/mL
- AUC ([3]; up to time 4 min, hydrochloride monohydrate): 30 min-μgA/mL
- AUC ([3]; up to time 10 min, hydrochloride monohydrate): 110 min-μgA/mL
- AUC ([3]; up to time 20 min, hydrochloride monohydrate): 280 min-μgA/mL
- AUC ([3]; up to time 40 min, hydrochloride monohydrate): 700 min-μgA/mL
- AUC ([3]; up to time 90 min, hydrochloride monohydrate): 1,700 min-μgA/mL
- AUC ([3]; up to time 1200 min, hydrochloride monohydrate): 16,400 min-μgA/mL
- AUC90 ([3]; area under the concentration-versus-time curve during the initial ninety minutes, MFD solution, hydrochloride monohydrate): 1700 min·µgA/mL
- MDC90 ([3]; maximum dissolved concentration during the initial ninety minutes, MFD solution, hydrochloride monohydrate): 22 µgA/mL
- Maximum Flux of Ziprasidone [2]: 0.16 μgA/cm^2-min
- Concentration (drug in the permeate solution) ([2]; 0 min, 100 μgA/mL, pH 6.5): 0.5 μgA/mL
- Concentration (drug in the permeate solution) ([2]; 20 min, 100 μgA/mL, pH 6.5): 5.2 μgA/mL
- Concentration (drug in the permeate solution) ([2]; 40 min, 100 μgA/mL, pH 6.5): 8.1 μgA/mL
- Concentration (drug in the permeate solution) ([2]; 60 min, 100 μgA/mL, pH 6.5): 10.0 μgA/mL
- Concentration (drug in the permeate solution) ([2]; 90 min, 100 μgA/mL, pH 6.5): 11.4 μgA/mL
- Concentration (drug in the permeate solution) ([2]; 120 min, 100 μgA/mL, pH 6.5): 12.9 μgA/mL
- Concentration (drug in the permeate solution) ([2]; 180 min, 100 μgA/mL, pH 6.5): 18.1 μgA/mL
- Concentration (drug in the permeate solution) ([2]; 240 min, 100 μgA/mL, pH 6.5): 20.9 μgA/mL
- Concentration (drug in the permeate solution) ([2]; 360 min, 100 μgA/mL, pH 6.5): 22.6 μgA/mL
- solubility in water [4]: about 10 μgA/mL

Molecule: O=C(N[C@@H](Cc1ccccc1)[C@@H](O)C(=O)N1C[C@@H](O)[C@@H](O)C1)c1cc2cc(Cl)ccc2[nH]1 [A2, 5-chloro-1H-indole-2-carboxylic acid [(1S)-benzyl-3-((3R,4S)-dihydroxypyrrolidin-1-yl)-(2R)-hydroxy-3-oxpropyl]amide]
- solubility in phosphate buffered saline [1]: 87 µg/mL (≈ 190 µM)
- maximum dissolved drug concentration [1]: 87 µg/mL

Molecule: O=C(N[C@@H](Cc1ccccc1)[C@@H](O)C(=O)N1C[C@@H](O)[C@@H](O)C1)c1cc2cc(Cl)ccc2[nH]1 [A1, 5-chloro-1H-indole-2-carboxylic acid [(1S)-benzyl-3-((3R,4S)-dihydroxypyrrolidin-1-yl)-(2R)-hydroxy-3-oxpropyl]amide]
- solubility in phosphate buffered saline [1]: about 480 μg/mL

Now from value to molecule:

- Ziprasidone Concentration in Permeate ([2]; 0 min, 100 μgA/mL, pH 6.5): 0.5 μgA/mL
- Maximum Flux of Ziprasidone ([2]; 100 μgA/mL, pH 6.5): 0.13 μgA/cm^2-min
- Ziprasidone Concentration in Permeate ([2]; 20 min, 100 μgA/mL, pH 6.5): 3.8 μgA/mL
- Ziprasidone Concentration in Permeate ([2]; 40 min, 100 μgA/mL, pH 6.5): 6.0 μgA/mL
- Ziprasidone Concentration in Permeate ([2]; 60 min, 100 μgA/mL, pH 6.5): 8.4 μgA/mL
- Ziprasidone Concentration in Permeate ([2]; 90 min, 100 μgA/mL, pH 6.5): 12.4 μgA/mL
- Ziprasidone Concentration in Permeate ([2]; 120 min, 100 μgA/mL, pH 6.5): 15.3 μgA/mL
- Ziprasidone Concentration in Permeate ([2]; 180 min, 100 μgA/mL, pH 6.5): 20.6 μgA/mL
- Ziprasidone Concentration in Permeate ([2]; 240 min, 100 μgA/mL, pH 6.5): 25.2 μgA/mL
- Ziprasidone Concentration in Permeate ([2]; 360 min, 100 μgA/mL, pH 6.5): 30.6 μgA/mL
Molecule: O=C1Cc2cc(CCN3CCN(c4nsc5ccccc45)CC3)c(Cl)cc2N1 [Control 1A, ziprasidone hydrochloride monohydrate]

- Maximum Flux of Ziprasidone [2]: 0.04 μg/cm^2-min
Molecule: ziprasidone tosylate [Control 3]
